Assay results taken from patent publication US20050004126A1 (priority 2001, published 2005).
Several values for one entry are separate records, joined by “and”; a condition that tells them apart may be missing. Equal values may be shown once. Read-outs that look alike come from different tables or passages of the source.

Molecular target: MMP-13CD (catalytic domain of collagenase 3) (Homo sapiens, UniProt P45452)
Test: Thiopeptolide hydrolysis assay, MMP-13;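 also: inhibition of enzymatic thiopeptolide substrate cleavage (100 µM) in pH 6.0 MES buffer with CaCl2 and DTNB, comparing hydrolysis with versus without inhibitor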
[1] = read-out: MMP 13 IC50 μM, Table III

Method: They measure the amount by which a test compound reduces the hydrolysis of a thiopeptolide substrate caused by a matrix metalloproteinase enzyme.
Thiopeptolide substrates show virtually no decomposition or hydrolysis in the absence of a matrix metalloproteinase enzyme. A typical thiopeptolide substrate commonly utilized for assays is Ac-Pro-Leu-Gly-thioester-Leu-Leu-Gly-OEt. A 100 μL assay mixture will contain 50 mM of 2-morpholinoethane sulfonic acid monohydrate (MES, pH 6.0) 10 mM CaCl2, 100 μM thiopeptolide substrate, and 1 mM 5,5′-dithio-bis-(2-nitro-benzoic acid) (DTNB). […] Assays are carried out with and without matrix metalloproteinase inhibitor compounds, and the amount of hydrolysis is compared for a determination of inhibitory activity of the test compounds.

SMILES	IC50 (MMP13 IC50 (nM), Table II)	IC50 (IC50 μM, Table V, MMP-13) [µM]	also measured
COC(=O)c1nc(Cn2c(=O)c(C)c3sc(C(=O)NCc4ccc(F)cc4)cn3c2=O)ncc1OC			IC50 (MMP13 IC50 (μM), Table 1b): 1.85 µM
COc1cccc(CNC(=O)c2cc3c(=O)n(Cc4ccc(OC(C)(C)C(=O)O)cc4)c(=O)n(C)c3s2)c1			IC50 [1]: 0.0185 µM
CC(=O)Nc1ccc(C(=O)NCc2ccc3c(c2)OCO3)cc1C(=O)NCc1ccc2c(c1)OCO2	5.2 µM		
Nc1ccc(C(=O)NCc2ccc3c(c2)OCO3)cc1C(=O)NCc1ccc2c(c1)OCO2	4.1 µM		
CCOc1ccc(C(=O)NCc2cccc(OC)c2)cc1C(=O)NCc1cccc(OC)c1	1.83 µM		
COc1ccc(CNC(=O)c2ccc(OC)c(C(=O)NCc3ccncc3)c2)cc1	1.5 µM		
Cc1c(=O)n(CCS(=O)(=O)c2ccc(F)cc2)c(=O)n2cc(C(=O)NCc3ccc(F)cc3)sc12			IC50 (MMP13 IC50 (μM), Table 1b): 0.645 µM
Cc1c(=O)n(CCC(=O)c2ccc(F)cc2)c(=O)n2cc(C(=O)NCc3ccc(F)cc3)sc12			IC50 (MMP13 IC50 (μM), Table 1b): 0.51 µM
C/C=C/Cn1c(=O)c(C)c2sc(C(=O)NCc3ccc(F)cc3)cn2c1=O			IC50 (MMP13 IC50 (μM), Table 1b): 0.53 µM
CCC(C)n1c(=O)c(C)c2sc(C(=O)NCc3ccc(F)cc3)cn2c1=O (stereo not shown)			IC50 (MMP13 IC50 (μM), Table 1b): 0.4 µM
Cc1c(=O)n(CCOc2ccccc2)c(=O)n2cc(C(=O)NCc3ccc(F)cc3)sc12			IC50 (MMP13 IC50 (μM), Table 1b): 0.058 µM
Cc1c(=O)n(CCS(=O)(=O)Cc2ccccc2)c(=O)n2cc(C(=O)NCc3ccc(F)cc3)sc12			IC50 (MMP13 IC50 (μM), Table 1b): 0.56 µM
CC/C=C/Cn1c(=O)c(C)c2sc(C(=O)NCc3ccc(F)cc3)cn2c1=O			IC50 (MMP13 IC50 (μM), Table 1b): 0.16 µM
CCC#CCn1c(=O)c(C)c2sc(C(=O)NCc3ccc(F)cc3)cn2c1=O			IC50 (MMP13 IC50 (μM), Table 1b): 0.092 µM
CC(C)=CCn1c(=O)c(C)c2sc(C(=O)NCc3ccc(F)cc3)cn2c1=O			IC50 (MMP13 IC50 (μM), Table 1b): 0.82 µM
COc1ccc(CNC(=O)c2cc3c(=O)n(CCS(=O)(=O)c4ccccc4)c(=O)n(C)c3s2)cc1			IC50 [1]: 4 µM
COc1ccc(C(=O)NCc2ccc3c(c2)OCO3)cc1C(=O)NCCOc1ccccc1	4.4 µM		
COc1ccc(C(=O)NCc2ccccc2)cc1C(=O)NCCOc1ccccc1	8.7 µM		
COc1ccc(CNC(=O)c2ccc(OC)c(C(=O)NCc3ccccc3)c2)cc1 [listing 1 of 2 here]	0.43 µM		
COc1cccc(CNC(=O)c2cccc(C(=O)NCc3cccc([N+](=O)[O-])c3)c2)c1	2.1 µM		
O=C(NCc1ccncc1)c1cccc(C(=O)NCc2ccc(Cl)c(Cl)c2)c1	2.5 µM		
COc1ccc(C(=O)NCCOc2ccccc2)cc1C(=O)NCc1ccc2c(c1)OCO2	3.1 µM		
CCOCCNC(=O)c1ccc(OC)c(C(=O)NCc2ccc3c(c2)OCO3)c1	5.7 µM		
COc1ccc(CNC(=O)c2ccc(OC)c(C(=O)NCc3ccccc3)c2)cc1 [listing 2 of 2 here]	0.81 µM		
COc1ccc(CNC(=O)c2cnc3c(c2)c(=O)n(Cc2ccc(C#N)cc2)c(=O)n3C)cc1 [3-(4-Cyano-benzyl)-1-methyl-2,4-dioxo-1,2,3,4-tetrahydro-pyrido[2,3-d] pyrimidine-6-carboxylic acid 4-methoxy-benzylamide]			IC50 (MMP13 IC50 μM, Table IVb): 0.016 µM
COc1ccc(CNC(=O)c2cnc3c(c2)c(=O)n(Cc2ccc(F)cc2)c(=O)n3C)cc1 [3-(4-Fluoro-benzyl)-1-methyl-2,4-dioxo-1,2,3,4-tetrahydro-pyrido[2,3-d]pyrimidine-6-carboxylic acid 4-methoxy-benzylamide]			IC50 (MMP13 IC50 μM, Table IVb): 0.032 µM

SMILES	IC50 (MMP13 IC50 (nM), Table II)	IC50 (IC50 μM, Table V, MMP-13) [µM]	also measured
Cn1c(=O)n(Cc2ccccc2)c(=O)c2cc(C(=O)NCc3ccc4c(c3)OCO4)cnc21 [3-Benzyl-1-methyl-2,4-dioxo-1,2,3,4-tetrahydro-pyrido[2,3-d] pyrimidine-6-carboxylic acid (1,3-benzodioxol-5-ylmethyl)-amide]			IC50 (MMP13 IC50 μM, Table IVb): 0.007 µM
Cn1c(=O)n(Cc2ccccc2)c(=O)c2cc(C(=O)NCc3ccc4c(c3)OCO4)ncc21 [3-Benzyl-1-methyl-2,4-dioxo-1,2,3,4-tetrahydro-pyrido[3,4-d]pyrimidine-6-carboxylic acid (1,3-benzodioxol-5-ylmethyl)-amide]			IC50 (MMP13 IC50 μM, Table IVb): 0.00078 µM
Cn1c(=O)n(Cc2ccccc2)c(=O)c2cc(C(=O)CCc3ccccc3)ccc21 [3-Benzyl-1-methyl-6-(3-phenyl-propionyl)-1H-quinazoline-2,4-dione]			IC50 (MMP13 IC50 μM, Table IVb): 2.9 µM
Cn1c(=O)n(Cc2ccccc2)c(=O)c2cc(SCc3ccccc3)ccc21 [3-Benzyl-6-benzylsulfanyl-1-methyl-1H-quinazoline-2,4-dione]			IC50 (MMP13 IC50 μM, Table IVb): 4.1 µM
COc1ccc(CNC(=O)c2ccc3c(c2)c(=O)n(Cc2ccc(C(=O)N(C)C)cc2)c2nncn32)cc1 [4-(4-Dimethylcarbamoyl-benzyl)-5-oxo-4,5-dihydro-[1,2,4]triazolo[4,3-a]quinazoline-7-carboxylic acid 4-methoxy-benzylamide]		0.0087	
O=C(NCc1ccncc1)c1ccc2c(c1)c(=O)n(Cc1ccccc1)c1nncn21 [4-Benzyl-5-oxo-4,5-dihydro-[1,2,4]triazolo[4,3-a]quinazoline-7-carboxylic acid (pyridin-4-ylmethyl)-amide]		0.04	
O=C(NCc1ccc2c(c1)OCO2)c1ccc2c(c1)c(=O)n(Cc1ccccc1)c1nccn21 [4-Benzyl-5-oxo-4,5-dihydro-imidazo[1,2-a]quinazoline-7-carboxylic acid (benzo[1,3]dioxol-5-ylmethyl)-amide]		0.165	
O=C(NCc1ccncc1)c1ccc2c(c1)c(=O)n(Cc1ccccc1)c1nccn21 [4-Benzyl-5-oxo-4,5-dihydro-imidazo[1,2-a]quinazoline-7-carboxylic acid (pyridin-4-ylmethyl)-amide]		2.1	
COc1ccc(CNC(=O)c2ccc3c(c2)c(=O)n(CCOc2ccc(Cl)cc2)c2nncn32)cc1 [4-[2-(4-Chloro-phenoxy)-ethyl]-5-oxo-4,5-dihydro-[1,2,4]triazolo[4,3-a]quinazoline-7-carboxylic acid 4-methoxy-benzylamide]		0.0865	
COc1ccc(CNC(=O)c2cnc3c(c2)c(=O)n(Cc2ccc(C(=O)O)cc2)c(=O)n3C)cc1 [4-[6-(4-Methoxy-benzylcarbamoyl)-1-methyl-2,4-dioxo-1,4-dihydro-2H-pyrido[2,3-d]pyrimidin-3-ylmethyl]-benzoic acid]			IC50 (MMP13 IC50 μM, Table IVb): 0.0016 µM
O=C(O)c1ccc(Cn2c(=O)c3cc(C(=O)NCc4ccc(F)cc4)ccc3n3cnnc23)cc1 [4-{7-[(4-Fluoro)-benzylcarbamoyl]-5-oxo-5H-[1,2,4]triazolo[4,3-a]quinazol-4-ylmethyl}benzoic acid]		0.0011	
O=C(O)c1ccc(Cn2c(=O)c3cc(C(=O)NCc4ccncc4)ccc3n3cnnc23)cc1 [4-{7-[(Pyridin-4-ylmethyl)-carbamoyl]-5-oxo-5H-[1,2,4]triazolo[4,3-a]quinazol-4-ylmethyl} benzoic acid]		0.0042	
O=C(OCc1ccccc1)c1cc(C(=O)OCc2ccccc2)cc([N+](=O)[O-])c1 [5-Nitro-isophthalic acid dibenzyl ester]	1.5 µM		
O=C(O)Cc1ccc(Cn2c(=O)c3cc(C(=O)NCc4ccc5c(c4)OCO5)ccc3n3cnnc23)cc1 [(4-{7-[(1,3-Benzodioxol-5-ylmethyl)-carbamoyl]-5-oxo-5H-[1,2,4]triazolo[4,3-a]quinazolin-4-ylmethyl}-phenyl)-acetic acid]		0.0011	
COc1ccc(CNC(=O)c2ccc3c(c2)c(=O)n(Cc2ccc(CC(=O)O)cc2)c2nncn32)cc1 [(4-{7-[(4-Methoxy)-benzylcarbamoyl]-5-oxo-5H-[1,2,4]triazolo[4,3-a]quinazolin-4-ylmethyl}-phenyl)-acetic acid]		0.0013	
O=C(O)Cc1ccc(Cn2c(=O)c3cc(C(=O)NCc4ccncc4)ccc3n3cnnc23)cc1 [(4-{7-[(Pyridin-4-yl)-methylcarbamoyl]-5-oxo-5H-[1,2,4]triazolo[4,3-a]quinazolin-4-ylmethyl}-phenyl)-acetic acid]		0.0062	
O=C(OCc1ccc2c(c1)OCO2)c1cccc(C(=O)OCc2ccc3c(c2)OCO3)c1 [Isophthalic acid bis-(1,3-benzodioxol-5-ylmethyl) ester]	0.66 µM		
COC(=O)c1ccc(Cn2c(=O)c3cc(C(=O)NCc4ccc(OC)cc4)ncc3n(C)c2=O)cc1 [Methyl 4-[6-(4-Methoxy-benzylcarbamoyl)-1-methyl-2,4-dioxo-1,4-dihydro-2H-pyrido[3,4-d]pyrimidin-3-ylmethyl]-benzoate]			IC50 (MMP13 IC50 μM, Table IVb): 0.0017 µM
COC(=O)c1ccc(Cn2c(=O)c3cc(C(=O)NCc4ccc5c(c4)OCO5)ccc3n3cnnc23)cc1 [Methyl 4-{7-[(1,3-benzodioxol-5-ylmethyl)-carbamoyl]-5-oxo-5H-[1,2,4]triazolo[4,3-a]quinazol-4-ylmethyl}benzoate]		0.0011	
COC(=O)c1ccc(Cn2c(=O)c3cc(C(=O)NCc4ccncc4)ccc3n3cnnc23)cc1 [Methyl 4-{7-[(pyridin-4-ylmethyl)-carbamoyl]-5-oxo-5H-[1,2,4]triazolo[4,3-a]quinazol-4-ylmethyl}benzoate]		0.012	
COC(=O)Cc1ccc(Cn2c(=O)c3cc(C(=O)NCc4ccc5c(c4)OCO5)ccc3n3cnnc23)cc1 [Methyl (4-{7-[(1,3-benzodioxol-5-ylmethyl)-carbamoyll-5-oxo-5H-[1,2,4]triazolo[4,3-a]quinazolin-4-ylmethyl}-phenyl)-acetate]		0.0022	
COC(=O)Cc1ccc(Cn2c(=O)c3cc(C(=O)NCc4ccc(OC)cc4)ccc3n3cnnc23)cc1 [Methyl (4-{7-[(4-methoxy)-benzylcarbamoyl]-5-oxo-5H-[1,2,4]triazolo[4,3-a]quinazolin-4-ylmethyl}-phenyl)-acetate]		0.0029	
COC(=O)Cc1ccc(Cn2c(=O)c3cc(C(=O)NCc4ccncc4)ccc3n3cnnc23)cc1 [Methyl (4-{7-[(pyridin-4-yl)-methylcarbamoyl]-5-oxo-5H-[1,2,4]triazolo[4,3-a]quinazolin-4-ylmethyl}-phenyl)-acetate]		0.013	
COc1ccc(CNC(=O)c2cc(C(=O)NCc3ccc4c(c3)OCO4)ccc2OC)cc1 [N-1,3-Benzodioxol-5-ylmethyl-4-methoxy-N′-(4-methoxy-benzyl)-isophthalamide]	0.2 µM and 0.19 µM		
COc1ccc(C(=O)NCc2ccc3c(c2)OCO3)cc1C(=O)NCc1ccc(Cl)cc1 [N-1,3-Benzodioxol-5-ylmethyl-N′-(4-chloro-benzyl)-4-methoxy-isophthalamide]	0.4 µM		
COc1ccc(CNC(=O)c2ccc3c(c2)c(=O)n(Cc2ccccc2)c2nncn32)cc1 [N-(4-Methoxybenzyl)-4-benzyl-5-oxo-4,5-dihydro[1,2,4]triazolo [4,3-a]quinazoline-7-carboxamide]		0.0055	
